Assay results from patent US20250099596A1, “TETRAHYDRONAPHTHALENE COMPOUND, AND PREPARATION METHOD THEREFOR AND USE THEREOF IN MEDICINE” (Jiangsu Hengrui Pharmaceuticals Co., Ltd., priority 2021, published 2025).

Experiments:
MCF7 cells = test: Inhibitory effects on MCF7 cell proliferation (CellTiter-Glo); assay type: cell-based; settings: Homo sapiens, 144 h, 6 days incubation, read-out: IC50 (nM), inhibition of MCF7 cell proliferation
Experimental: (§1) MCF7 cells (TCHu74, National Collection of Authenticated Cell Cultures) were cultured in an MEM (GE Healthcare, SH30024.01) complete medium containing 10% fetal bovine serum. On day 1 of the experiment, MCF7 cells were seeded into a 96-well plate at a density of 3,000 cells/well using MEM containing 2% fetal bovine serum, with each well containing 135 μL of cell suspension. The plate was incubated in a 37° C., 5% CO2 cell incubator overnight. The next day, different concentrations of test compounds prepared in media were added at 15 μL/well. The final concentrations of the compounds were 9 concentration points obtained by 4-fold serial dilution from 1000 nM. A blank control containing 0.5% DMSO was set up. The plate was incubated in a 37° C., 5% CO2 cell incubator for 6 days. On day 8, the 96-well cell culture plate was taken out, and CellTiter-Glo® Luminescent Cell Viability Assay (Promega, G7573) was added at 75 μL/well. After the plate was left at room temperature for 10 min, luminescence signal readings were taken on a multilabel microplate reader (PerkinElmer, VICTOR 3). The IC50 values for the inhibitory activity of the compounds were calculated from the concentrations of the compounds and the luminescence signal readings using Graphpad Prism software.

MCF7/ERα Y537S cells = test: Inhibitory activity on proliferation of ERα mutant-expressing MCF7 cells; assay type: cell-based; settings: Homo sapiens, 144 h, 6 days incubation, CellTiter-Glo, read-out: IC50 (nM), inhibition of proliferation of ERα mutant-expressing MCF7 cells
Experimental: The objective of this experiment was to determine the inhibitory activity of the compounds of the present disclosure on the proliferation of ERα mutant-expressing MCF7 cells.
as §1, with “cells expressing the ERα Y537S mutant were constructed by lentiviral infection. MCF7/ERα Y537S cells” for “cells (TCHu74, National Collection of Authenticated Cell Cultures)”, “bovine serum and […] puromycin.” for “bovine serum.”, “experiment,” for “experiment, MCF7”, “135 µL” for “135 μL”, “75 µL/well.” for “75 μL/well.”

SMILES | IC50 (MCF7 cells) | IC50 (MCF7/ERα Y537S cells)
O=C1CCC(N2Cc3cc(N4CCN(CC5CCN(c6ccc([C@@H]7c8ccc(O)cc8CC[C@@H]7CC7CC7)cc6)CC5)CC4)ccc3C2=O)C(=O)N1 (stereo in doubt) [Example 34, (S)-3-(5-(4-((1-(4-((1R,2R)-2-(Cyclopropylmethyl)-6-hydroxy-1,2,3,4-tetrahydronaphthalen-1-yl)phenyl)piperidin-4-yl)methyl)piperazin-1-yl)-1-oxoisoindolin-2-yl)piperidine-2,6-dione] | 1.51 nM | 19.2 nM
O=C1CCC(N2Cc3cc(N4CCN(CC5CCN(c6ccc([C@@H]7c8ccc(O)cc8CCC78CCCC8)cc6F)CC5)CC4)ccc3C2=O)C(=O)N1 (stereo in doubt) [Example 36, (S)-3-(5-(4-((1-(2-Fluoro-4-((R)-6′-hydroxy-3′,4′-dihydro-1′H-spiro[cyclopentane-1,2′-naphthalen]-1′-yl)phenyl)piperidin-4-yl)methyl)piperazin-1-yl)-1-oxoisoindolin-2-yl)piperidine-2,6-dione] | 1.56 nM | 8.35 nM
O=C1CCC(N2Cc3cc(N4CCN(CC5CCN(c6ccc(C7c8ccc(O)cc8CCC78CCCC8)cc6)CC5)CC4)ccc3C2=O)C(=O)N1 (centres unmarked) [Example 1, 3-(5-(4-((1-(4-(6′-Hydroxy-3′,4′-dihydro-1′H-spiro[cyclopentane-1,2′-naphthalen]-1′-yl)phenyl)piperidin-4-yl)methyl)piperazin-1-yl)-1-oxoisoindolin-2-yl)piperidine-2,6-dione] | 6.15 nM | 14.9 nM
O=C1CC[C@H](N2Cc3cc(N4CCN(CC5CCN(c6ccc([C@@H]7c8ccc(O)cc8CC[C@@H]7C7CCOCC7)cc6F)CC5)CC4)ccc3C2=O)C(=O)N1 [Example 5, (S)-3-(5-(4-((1-(2-Fluoro-4-((1R,2R)-6-hydroxy-2-(tetrahydro-2H-pyran-4-yl)-1,2,3,4-tetrahydronaphthalen-1-yl)phenyl)piperidin-4-yl)methyl)piperazin-1-yl)-1-oxoisoindolin-2-yl)piperidine-2,6-dione] | 0.72 nM | 2.29 nM
O=C1CCC(N2Cc3cc(N4CCN(CC5CCN(c6ccc(C7c8ccc(O)cc8CC[C@@H]7C7CCOCC7)cc6)CC5)CC4)ccc3C2=O)C(=O)N1 (stereo partly drawn) [Example 7, 3-(5-(4-((1-(4-((1,2)-cis-6-Hydroxy-2-(tetrahydro-2H-pyran-4-yl)-1,2,3,4-tetrahydronaphthalen-1-yl)phenyl)piperidin-4-yl)methyl)piperazin-1-yl)-1-oxoisoindolin-2-yl)piperidine-2,6-dione] | 0.67 nM | 3.31 nM
O=C1CCC(N2Cc3cc(N4CCN(CC5CCN(c6ccc([C@H]7c8ccc(O)cc8CC[C@H]7C7CCOCC7)cc6)CC5)CC4)ccc3C2=O)C(=O)N1 (stereo partly drawn) [Example 8-2, 3-(5-(4-((1-(4-((1S,2S)-6-Hydroxy-2-(tetrahydro-2H-pyran-4-yl)-1,2,3,4-tetrahydronaphthalen-1-yl)phenyl)piperidin-4-yl)methyl)piperazin-1-yl)-1-oxoisoindolin-2-yl)piperidine-2,6-dione] | 36.5 nM | 92.2 nM
O=C1CCC(N2Cc3cc(N4CCN(CC5CCN(c6ccc(C7c8ccc(O)cc8CC[C@@H]7C7CCC(F)(F)CC7)cc6)CC5)CC4)ccc3C2=O)C(=O)N1 (stereo partly drawn) [Example 9, 3-(5-(4-((1-(4-((1,2)-cis-2-(4,4-Difluorocyclohexyl)-6-hydroxy-1,2,3,4-tetrahydronaphthalen-1-yl)phenyl)piperidin-4-yl)methyl)piperazin-1-yl)-1-oxoisoindolin-2-yl)piperidine-2,6-dione] | 2.14 nM | 8.73 nM
O=C1CC[C@H](N2Cc3cc(N4CCN(CC5CCN(c6ccc([C@@H]7c8ccc(O)cc8CC[C@@H]7C7CCC7)cc6)CC5)CC4)ccc3C2=O)C(=O)N1 [Example 13-1, (S)-3-(5-(4-((1-(4-((1R,2R)-2-Cyclobutyl-6-hydroxy-1,2,3,4-tetrahydronaphthalen-1-yl)phenyl)piperidin-4-yl)methyl)piperazin-1-yl)-1-oxoisoindolin-2-yl)piperidine-2,6-dione] | 0.83 nM | 4.79 nM
O=C1CCC(N2Cc3cc(N4CCN(CC5CCN(c6ccc([C@H]7c8ccc(O)cc8CC[C@H]7C7CCCC7)cc6)CC5)CC4)ccc3C2=O)C(=O)N1 (stereo partly drawn) [Example 14-2, 3-(5-(4-((1-(4-((1S,2S)-2-Cyclopentyl-6-hydroxy-1,2,3,4-tetrahydronaphthalen-1-yl)phenyl)piperidin-4-yl)methyl)piperazin-1-yl)-1-oxoisoindolin-2-yl)piperidine-2,6-dione] | 8.17 nM | 24.4 nM
O=C1CCC(N2Cc3cc(N4CCN(CC5CCN(c6ccc([C@H]7c8ccc(O)cc8CC[C@H]7C7CCCCC7)cc6)CC5)CC4)ccc3C2=O)C(=O)N1 (stereo partly drawn) [Example 15-2, 3-(5-(4-((1-(4-((1S,2S)-2-Cyclohexyl-6-hydroxy-1,2,3,4-tetrahydronaphthalen-1-yl)phenyl)piperidin-4-yl)methyl)piperazin-1-yl)-1-oxoisoindolin-2-yl)piperidine-2,6-dione] | 14.3 nM | 31.4 nM
O=C1CCC(N2Cc3cc(N4CCN(CC5CCN(c6ccc([C@@H]7c8ccc(O)cc8CC[C@@H]7C7CC7)cc6)CC5)CC4)ccc3C2=O)C(=O)N1 (stereo partly drawn) [Example 16, 3-(5-(4-((1-(4-((1,2)-cis-2-Cyclopropyl-6-hydroxy-1,2,3,4-tetrahydronaphthalen-1-yl)phenyl)piperidin-4-yl)methyl)piperazin-1-yl)-1-oxoisoindolin-2-yl)piperidine-2,6-dione] | 4.63 nM | 14.9 nM
O=C1CC[C@H](N2Cc3cc(N4CCN(CC5CCN(c6ccc([C@@H]7c8ccc(O)cc8CC[C@@H]7C7CCC7)cc6F)CC5)CC4)ccc3C2=O)C(=O)N1 [Example 18-1, (S)-3-(5-(4-((1-(4-((1R,2R)-2-Cyclobutyl-6-hydroxy-1,2,3,4-tetrahydronaphthalen-1-yl)-2-fluorophenyl)piperidin-4-yl)methyl)piperazin-1-yl)-1-oxoisoindolin-2-yl)piperidine-2,6-dione] | 1.35 nM | 7.77 nM
O=C1CC[C@H](N2Cc3cc(N4CCN(CC5CCN(c6ccc([C@@H]7c8ccc(O)cc8CC[C@@H]7C7CCCC7)cc6F)CC5)CC4)ccc3C2=O)C(=O)N1 [Example 19, (S)-3-(5-(4-((1-(4-((1R,2R)-2-cyclopentyl-6-hydroxy-1,2,3,4-tetrahydronaphthalen-1-yl)-2-fluorophenyl)piperidin-4-yl)methyl)piperazin-1-yl)-1-oxoisoindolin-2-yl)piperidine-2,6-dione] | 0.87 nM | 5.04 nM
O=C1CC[C@H](N2Cc3cc(N4CCN(CC5CCN(c6ccc([C@@H]7c8ccc(O)cc8CC[C@@H]7C7CCCCC7)cc6F)CC5)CC4)ccc3C2=O)C(=O)N1 [Example 20, (S)-3-(5-(4-((1-(4-((1R,2R)-2-Cyclohexyl-6-hydroxy-1,2,3,4-tetrahydronaphthalen-1-yl)-2-fluorophenyl)piperidin-4-yl)methyl)piperazin-1-yl)-1-oxoisoindolin-2-yl)piperidine-2,6-dione] | 0.73 nM | 2.74 nM
O=C1CC[C@H](N2Cc3cc(N4CCN(CC5CCN(c6ccc([C@@H]7c8ccc(O)cc8CC[C@@H]7C7CC7)cc6F)CC5)CC4)ccc3C2=O)C(=O)N1 [Example 21, (S)-3-(5-(4-((1-(4-((1R,2R)-2-Cyclopropyl-6-hydroxy-1,2,3,4-tetrahydronaphthalen-1-yl)-2-fluorophenyl)piperidin-4-yl)methyl)piperazin-1-yl)-1-oxoisoindolin-2-yl)piperidine-2,6-dione] | 1.72 nM | 5.66 nM
O=C1CC[C@H](N2Cc3cc(N4CCN(CC5CCN(c6ccc([C@@H]7c8ccc(O)cc8CCC78CCOCC8)cc6)CC5)CC4)ccc3C2=O)C(=O)N1 [Example 22, (S)-3-(5-(4-((1-(4-((R)-6-Hydroxy-2′,3,3′,4,5′,6′-hexahydro-1H-spiro[naphthalene-2,4′-pyran]-1-yl)phenyl)piperidin-4-yl)methyl)piperazin-1-yl)-1-oxoisoindolin-2-yl)piperidine-2,6-dione] | 3.13 nM | 9.19 nM
